Measured values taken from ChEMBL document CHEMBL1147336, “A new antibacterial sesquiterpene from Premna oligotricha” (1993).
≈ marks a conversion by molar mass, not a printed value. Calls of active or inactive are those of the source. The calls are words filed in the database; no cut-off is given here.

What was measured:
[1] = tested on: Staphylococcus aureus; test: Antibacterial activity against Staphylococcus aureus NCTC 6571; assay type: functional
[2] = tested on: Bacillus subtilis; test: Antibacterial activity against Bacillus subtilis NCTC 10452; assay type: functional
[3] = tested on: Bacillus pumilus; test: Antibacterial activity against Bacillus pumilus NCTC 10327; assay type: functional
[4] = tested on: Enterococcus faecalis; test: Antibacterial activity against Streptococcus faecalis NCTC 775; assay type: functional
[5] = tested on: Escherichia coli; test: Antibacterial activity against Escherichia coli NCTC 9001 at 200 ug/ml; assay type: functional, organism-based
[6] = tested on: Pseudomonas aeruginosa; test: Antibacterial activity against Pseudomonas aeruginosa NCTC 6750 at 200 ug/ml; assay type: functional, organism-based

SMILES | MIC [1] [µg/mL] | MIC [2] [µg/mL] | MIC [3] [µg/mL] | MIC [4] [µg/mL] | Activity [5] | Activity [6]
CN[C@@H]1[C@H](O[C@H]2[C@H](O[C@H]3[C@H](O)[C@@H](O)[C@H](N=C(N)N)[C@@H](O)[C@@H]3N=C(N)N)O[C@@H](C)[C@]2(O)C=O)O[C@@H](CO)[C@H](O)[C@H]1O.CN[C@@H]1[C@H](O[C@H]2[C@H](O[C@H]3[C@H](O)[C@@H](O)[C@H](N=C(N)N)[C@@H](O)[C@@H]3N=C(N)N)O[C@@H](C)[C@]2(O)C=O)O[C@@H](CO)[C@H](O)[C@H]1O.O=S(=O)(O)O.O=S(=O)(O)O.O=S(=O)(O)O [STREPTOMYCIN SULFATE] | 3.75 | 3.75 | 0.94 | 15 |  | 
C=C(CC[C@@H]1C(C)(C)CCC[C@]1(C)O)C(C)=O | 50 (≈ 210 µM) | 100 (≈ 420 µM) | 50 (≈ 210 µM) | 150 (≈ 629 µM) | inactive | inactive
